Reference: publication PMC6259134, “Synthesis, Antimycobacterial, Antifungal and Photosynthesis-Inhibiting Activity of Chlorinated N-phenylpyrazine-2-carboxamides” (Molecules, 2010)
Values after ≈ are worked out from the molar mass of the structure shown. Values joined by “and” are separate entries in the source; they are usually repeats but may differ in a detail not shown here. Equal values may be shown once. Read-outs that look alike come from different tables or passages of the source.

Tests used:
[1] = test system: photosynthetic electron transport (PET) in spinach chloroplasts; assay: Inhibition of photosynthetic electron transport (PET) in spinach chloroplasts (DCPIP photoreduction); format: biochemical, Spinacia oleracea L.
Method: The activity of the majority of the studied compounds was moderate or low relative to the standard. Chloroplasts were prepared from spinach (Spinacia oleracea L.) according to Masarovičová and Kráľová [26]. […] [27], and the rate of photosynthetic electron transport was monitored as a photoreduction of DCPIP. The measurements were carried out in phosphate buffer (0.02 mol/L, pH 7.2) containing sucrose (0.4 mol/L), MgCl2 (0.005 mol/L) and NaCl (0.015 mol/L). The chlorophyll content was 30 mg/L in these experiments and the samples were irradiated (~100 W/m^2) from 10 cm distance with a halogen lamp (250 W) using a 4 cm water filter to prevent warming of the samples (suspension temperature 22 °C). The studied compounds were dissolved in DMSO due to their limited water solubility. […] The inhibitory efficiency of the studied compounds was manifested by IC50 values, i.e. by molar concentration of the compounds causing 50% decrease in the […] relative to the untreated control.

[2] = test system: Trichophyton mentagrophytes 445; assay: In vitro antifungal susceptibility testing (microdilution broth method); format: cell-based; details: T. mentagrophytes; for MIC: Trichophyton mentagrophytes, 445
[3] = design: method as in PMID 1151976, doi:10.1002/9780470171912.ch3; details: Hammett's constant of R3 phenyl substituent; cited from earlier work
[4] = Lipophilicity determination by RP-HPLC (capacity factor k / log k, distributive π parameters); format: physicochemical; details: for log k: RP-HPLC, C18, MeOH 70%/H2O 30%, isocratic; for π determined Ph: distributive parameter of phenyl substituents; for π determined Ph / π determined Pyr: calculated from log k; for π determined Pyr: distributive parameter of pyrazine substituents
Method: The procedure was performed under isocratic conditions with methanol as an organic modifier in the mobile phase using an end-capped non-polar C18 stationary RP column. The results are shown in Table 1 and illustrated in Figure 2. Waters Alliance 2695 XE HPLC separation module and Waters Photodiode Array Detector 2996 (Waters Corp., Milford, MA, USA) were used. Waters Symmetry® C18 5 μm, 4.6 ° 250 mm, Part No. WAT054275 (Waters Corp., Milford, MA, USA) chromatographic column was used. The HPLC separation process was monitored by Empower™ 2 Chromatography Data Software, Waters 2009 (Waters Corp., Milford, MA, USA). The mixture of MeOH (HPLC grade, 70%) and H2O (HPLC–Mili-Q Grade, 30%) was used as a mobile phase. The total flow rate of the column was 1.0 mL/min, injection volume 30 μL, column temperature 30 °C and sample temperature 10 °C were used. The detection wavelength of 210 nm was chosen. The KI methanolic solution was used for the dead time (tD) determination. Retention times (tR) were measured in minutes. The capacity factors k were calculated using the Empower™ 2 Chromatography Data Software according to formula k = (tR - tD)/tD, where tR is the retention time of the solute, whereas tD denotes the dead time obtained using an unretained analyte. Log k, calculated from the capacity factor k, is used as the lipophilicity index converted to log P scale. Distributive π parameters characterizing lipophilicity of the individual substituents were calculated according to the formula π = log kS – log kU, where log kS is the determined capacity factor logarithm of the individual substituted compounds, whereas log kU denotes the determined capacity factor logarithm of the unsubstituted compound, it means π = 0.

[5] = test system: M. tuberculosis H37Rv (ATCC27294); assay: In vitro antimycobacterial primary screening (TAACF, BACTEC 460 / MABA); format: cell-based; details: Mycobacterium tuberculosis, read-out: Antimycobacterial evaluation Inhibition
Method: All compounds were assayed in vitro against M. tuberculosis H37Rv. […] None of the tested derivatives overcame this limit, see Table 2.
Antimycobacterial evaluation was carried out in the tuberculosis antimicrobial acquisition and coordinating facility (TAACF), Southern Research Institute, Birmingham, AL, U.S.A., which is a part of the National Institutes of Health (NIH). Primary screening of all compounds was conducted at 6.25 µg/mL against M. tuberculosis H37Rv (ATCC27294) in BACTEC 12B medium using both BACTEC 460 radiometric system and the Microplate Alamar Blue Assay (MABA). For the results see Table 2.

M. tuberculosis H37Rv = details: cited from earlier work
[6] = test system: photosynthetic electron transport (PET) in spinach chloroplasts; design: method as in earlier work; details: standard, read-out: PET inhibition IC50; cited from earlier work
[7] = after 72 h, MIC for moulds determined as IC50 value, read-out: Antifungal susceptibility MIC
[8] = after 120 h, MIC for moulds determined as IC50 value, read-out: Antifungal susceptibility MIC

| Compound | IC50 [1] | MIC [2, 7] | MIC [2, 8] | σ [3] | log k [4] | π determined Ph [4] | π determined Pyr [4] | inhibition at 6.25 µg/mL [5] | MIC ([2]; incubation time not given, read-out: MIC) | MIC (M. tuberculosis H37Rv) | IC50 [6] | Antifungal susceptibility MIC ([2]; after 120 h, MIC for moulds determined as IC50 value) |
| --- | --- | --- | --- | --- | --- | --- | --- | --- | --- | --- | --- | --- |
| O=C(Nc1cccc(Cl)c1)c1cncc(Cl)n1 [Compound 2, 6-Chloropyrazine-2-carboxylic acid (3-chlorophenyl)amide] | 262 µM | 125 µM (≈ 33.5 µg/mL) | 125 µM (≈ 33.5 µg/mL) | 0.373 | 0.7864 | 0.10 | 0.30 | 14% | – | – | – | – |
| O=C(Nc1ccc(Cl)c(Cl)c1)c1cnccn1 [Compound 13] | – | > 250 µM | > 250 µM | 0.60 | 0.6962 | 0.30 | 0.00 | 8% | – | – | – | – |
| CC(C)(C)c1cnc(C(=O)Nc2c(Cl)cccc2Cl)cn1 [Compound 11, 5-tert-Butyl-N-(2,6-dichlorophenyl)pyrazine-2-carboxamide] | 153 µM | 250 µM (≈ 81.1 µg/mL) | 250 µM (≈ 81.1 µg/mL) | 0.40 | 1.2802 | 0.34 | 0.61 | 0% | – | – | – | – |
| CC(C)(C)c1ncc(C(=O)Nc2ccc(Cl)c(Cl)c2)nc1Cl [Compound 16, 6-chloro-5-tert-butyl-N-(3,4-dichlorophenyl)pyrazine-2-carboxamide] | 130 µM | 62.5 µM (≈ 22.4 µg/mL) | 62.5 µM (≈ 22.4 µg/mL) | 0.60 | 1.7563 | 0.51 | 1.04 | 0% | 62.5 µM (≈ 22.4 µg/mL) | – | – | – |
| CC(C)(C)c1cnc(C(=O)Nc2cccc(Cl)c2)cn1 [Compound 3, 5-tert-Butylpyrazine-2-carboxylic acid (3-chlorophenyl)amide] | 95.5 µM | > 250 µM | > 250 µM | 0.373 | 1.0996 | – | – | 0% | – | – | – | – |
| O=C(Nc1ccc(Cl)c(Cl)c1)c1cncc(Cl)n1 [Compound 14, 6-chloro-N-(3,4-dichlorophenyl)pyrazine-2-carboxamide] | 105 µM | 125 µM (≈ 37.8 µg/mL) | 250 µM (≈ 75.6 µg/mL) | 0.60 | 0.9950 | 0.31 | 0.28 | 61% | – | – | – | – |
| Cc1ccc(NC(=O)c2cnccn2)cc1I [N-(3-iodo-4-methylphenyl)pyrazine-2-carbox-amide] | – | – | – | – | – | – | – | – | – | 3.13 to 6.25 µg/mL | – | – |
| CN(C)C(=O)Nc1ccc(Cl)c(Cl)c1 [DCMU, 3-(3,4-dichlorophenyl)-1,1-dimethylurea] | – | – | – | – | – | – | – | – | – | – | ~1.9 µM and 1.9 µM | – |
| O=C(Nc1ccc(Cl)cc1)c1cncc(Cl)n1 [Compound 6, 6-chloro-N-(4-chlorophenyl)pyrazine-2-carboxamide] | 486 µM | > 500 µM | > 500 µM | 0.227 | 0.8185 | 0.13 | 0.32 | 65% | – | – | – | – |
| CC(C)(C)c1ncc(C(=O)Nc2cccc(C(F)(F)F)c2)nc1Cl [5-tert-butyl-6-chloro-N-(3-trifluoromethylphenyl)pyrazine-2-carboxamide] | – | – | – | – | – | – | – | – | – | 3.13 to 6.25 µg/mL | – | – |
| O=C(Nc1ccc(Cl)cc1)c1cnccn1 [Compound 5] | 1520 µM | > 250 µM | > 250 µM | 0.227 | 0.4987 | 0.09 | 0.00 | 4% | – | – | – | – |
| CC(C)(C)c1ncc(C(=O)Nc2ccc(Cl)cc2)nc1Cl [Compound 8, 6-chloro-5-tert-butyl-N-(4-chlorophenyl)pyrazine-2-carboxamide] | 43 µM | > 250 µM | > 250 µM | 0.227 | 1.5015 | 0.26 | 1.00 | 24% | – | – | – | – |
| O=C(Nc1c(Cl)cccc1Cl)c1cnccn1 [Compound 9, N-(2,6-dichlorophenyl)pyrazine-2-carboxamide] | – | > 500 µM | > 500 µM | 0.40 | 0.6656 | 0.25 | 0.00 | 0% | – | – | – | – |
| O=C(Nc1cccc(Cl)c1)c1cnccn1 [Compound 1, Pyrazine-2-carboxylic acid (3-chlorophenyl)amide] | 290 µM | 500 µM (≈ 117 µg/mL) | > 500 µM | 0.373 | 0.4914 | 0.08 | 0.00 | 14% | – | – | – | – |
| OC(Cn1cncn1)(Cn1cncn1)c1ccc(F)cc1F [FLU, fluconazole, reference compound] | – | 1.95 µM (≈ 0.597 µg/mL) | 3.91 µM (≈ 1.2 µg/mL) | – | – | – | – | – | – | – | – | 3.91 µM |
| CC(C)(C)c1ncc(C(=O)Nc2c(Cl)cccc2Cl)nc1Cl [Compound 12, 5-tert-Butyl-6-chloro-N-(2,6-dichlorophenyl)pyrazine-2-carboxamide] | 61 µM | 125 µM (≈ 44.8 µg/mL) | 125 µM (≈ 44.8 µg/mL) | 0.40 | 1.6631 | 0.42 | 1.00 | 0% | – | – | – | – |
| CC(C)(C)c1cnc(C(=O)Nc2ccc(Cl)cc2)cn1 [Compound 7] | – | > 250 µM | > 250 µM | 0.227 | 1.1043 | 0.16 | 0.61 | 0% | – | – | – | – |
| CC(C)(C)c1ncc(C(=O)Nc2cccc(Cl)c2)nc1Cl [Compound 4, 5-tert-Butyl-6-chloropyrazine-2-carboxylic acid (3-chlorophenyl)amide] | 101 µM | > 250 µM | > 250 µM | 0.373 | 1.4896 | 0.25 | 1.00 | 0% | – | – | – | – |
| O=C(Nc1c(Cl)cccc1Cl)c1cncc(Cl)n1 [Compound 10, 6-Chloro-N-(2,6-dichlorophenyl)pyrazine-2-carboxamide] | 829 µM | > 250 µM | > 250 µM | 0.40 | 0.9456 | – | – | 0% | – | – | – | – |
| CC(C)(C)c1cnc(C(=O)Nc2ccc(Cl)c(Cl)c2)cn1 [Compound 15] | – | 125 µM (≈ 40.5 µg/mL) | 125 µM (≈ 40.5 µg/mL) | 0.60 | 1.3395 | 0.40 | 0.62 | 15% | – | – | – | – |
| O=C(Nc1cccc(C(F)(F)F)c1)c1cnccn1 [N-(3-Trifluoromethylphenyl)pyrazine-2-carboxamide] | – | – | – | – | – | – | – | – | – | 3.13 to 6.25 µg/mL | – | – |
